# Where two headings read alike, the source gives them in different places.
# Assays:
# [1] = molecular target: Human GSK3beta (Homo sapiens (Human), UniProt P49841); assay: GSK 3beta kinase test (Z'-LYTE); format: biochemical; conditions: read-out: IC50 in μM (GSK3beta-Inhibition)
# Protocol: Human GSK3beta (expressed and prified from SF21 cells) is obtained from the University Dundee/Scotland (Dr. James Hastie—Dept. of Biochemistry) in 50 mM Tris (pH7.5); 150 mM NaCl; 0.1 mM EGTA, 270 mM Succrose, 0.1% β-mercaptoethanol, 1 mM benzamidine, 0.2 mM PMSF; sequence see below). The enzyme is diluted to 3.56 μM (168 μg/ml) in enzyme dilution buffer and 6 μl aliquots are stored at −80° C.
# The activity of GSK3 kinase protein is measured using the Z′-LYTETM assay technology from Invitrogen (# PV3324).
# The assay is performed in 384 black plates from Corning (#3676) in a final volume of 10 μl by adding 5 μl of kinase peptide mix and 2.5 μl of compound dilution. The reaction is started by addition of 2.5 μl of the 4×ATP solution.
# Positive controls are reaction mixtures containing no test compound; negative controls (blanks) are reaction mixtures containing no ATP. As a further control, the phosphopeptide solution is added to wells without kinase and without ATP (=100% phosphorylation control).
# The non inhibited kinase reaction will result in a phosphorylation corresponding to 20%-30% of the phosphorylation control.
# The reaction is performed 1 h at room temperature. After 1h 5 μl of the development solution is added. After a further incubation for 1 h at room temperature 5 μl of the stop reagent is added. Finally the plates are read on a Flex Station II 384 (Molecular Devices).
# The output text file is evaluated in an “MS-Excel—VB-Makro” and “GraphPadPrism” (Version 5) (GraphPad Software Inc.) is used to calculate the results. Data for the inhibition of GSK3beta are reported in M. data for the inhibition of the protease are reported in % CTL.
# [2] = molecular target: FLT3 (Homo sapiens (Human), UniProt P36888); assay: FLT3 kinase test (Z'-LYTE); format: biochemical
# Sequence of FLT3 (P36888 27-993): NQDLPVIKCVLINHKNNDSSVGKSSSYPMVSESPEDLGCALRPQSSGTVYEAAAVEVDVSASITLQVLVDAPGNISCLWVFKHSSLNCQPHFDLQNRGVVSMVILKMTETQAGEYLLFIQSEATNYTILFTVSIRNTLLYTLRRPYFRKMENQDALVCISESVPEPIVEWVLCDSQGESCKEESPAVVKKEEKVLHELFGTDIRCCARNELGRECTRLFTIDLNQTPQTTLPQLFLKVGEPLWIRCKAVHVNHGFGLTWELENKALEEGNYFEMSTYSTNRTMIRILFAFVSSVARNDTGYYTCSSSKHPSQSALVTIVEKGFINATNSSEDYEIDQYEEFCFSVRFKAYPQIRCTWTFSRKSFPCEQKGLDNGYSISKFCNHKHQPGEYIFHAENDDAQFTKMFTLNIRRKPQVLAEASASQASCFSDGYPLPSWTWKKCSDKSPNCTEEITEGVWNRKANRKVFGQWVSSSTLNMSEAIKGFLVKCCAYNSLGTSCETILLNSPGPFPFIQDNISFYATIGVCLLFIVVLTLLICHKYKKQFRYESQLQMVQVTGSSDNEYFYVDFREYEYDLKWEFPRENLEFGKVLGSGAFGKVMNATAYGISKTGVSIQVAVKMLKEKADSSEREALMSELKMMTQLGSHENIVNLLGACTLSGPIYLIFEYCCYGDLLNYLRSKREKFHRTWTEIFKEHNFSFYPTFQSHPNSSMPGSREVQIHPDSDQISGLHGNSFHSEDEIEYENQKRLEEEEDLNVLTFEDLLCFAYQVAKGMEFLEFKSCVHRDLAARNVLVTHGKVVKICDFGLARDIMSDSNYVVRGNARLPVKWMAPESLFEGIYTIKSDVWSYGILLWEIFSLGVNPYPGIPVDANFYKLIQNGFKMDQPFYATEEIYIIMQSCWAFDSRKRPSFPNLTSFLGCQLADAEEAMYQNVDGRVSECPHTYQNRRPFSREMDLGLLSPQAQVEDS
# How it was run: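 Z'-LYTE FRET format; kinase reaction started with ATP, run 1 h at room temperature, then 1 h development before stop reagent. Controls without compound, without kinase, and phosphopeptide as 100% phosphorylation reference; values reported in M.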
# [3] = molecular target: Recombinant human Aurora B (amino acids 1-344) (Homo sapiens (Human), UniProt Q96GD4); assay: Aurora B kinase test (ADP Glo luminescence); format: biochemical
# Sequence of Recombinant human Aurora B (amino acids 1-344) (Q96GD4 whole entry, the tested form may be a part): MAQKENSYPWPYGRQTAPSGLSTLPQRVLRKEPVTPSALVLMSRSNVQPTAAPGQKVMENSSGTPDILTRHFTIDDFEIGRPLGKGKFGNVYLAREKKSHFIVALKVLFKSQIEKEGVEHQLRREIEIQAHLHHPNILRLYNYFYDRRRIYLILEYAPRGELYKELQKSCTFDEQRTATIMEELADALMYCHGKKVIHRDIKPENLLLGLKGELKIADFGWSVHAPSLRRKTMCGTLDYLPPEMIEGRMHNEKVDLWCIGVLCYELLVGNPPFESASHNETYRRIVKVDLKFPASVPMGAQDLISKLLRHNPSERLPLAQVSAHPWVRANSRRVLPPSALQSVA
# [4] = molecular target: Recombinant human Syk (amino acids 342-635), GST-Syk kinase fusion protein (Homo sapiens (Human), UniProt P43405); assay: Syk kinase test (Kinase Glo luminescence); format: biochemical
# [5] = Human liver microsomal stability test; format: in vitro ADME; conditions: human liver microsomes; Qh = liver blood flow
# [6] = Table 1, read-out: FLT3-inhibition IC50-value
# [7] = read-out: IC50 in μM (FLT3-Inhibition)
# [8] = Table 1, read-out: AURB-inhibition IC50-value
# [9] = read-out: IC50 in μM (AURB-Inhibition)
# [10] = Table 1, read-out: SYK-inhibition IC50-value
# [11] = read-out: IC50 in μM (SYK-Inhibition)
# Sequence of Human GSK3beta (P49841 whole entry): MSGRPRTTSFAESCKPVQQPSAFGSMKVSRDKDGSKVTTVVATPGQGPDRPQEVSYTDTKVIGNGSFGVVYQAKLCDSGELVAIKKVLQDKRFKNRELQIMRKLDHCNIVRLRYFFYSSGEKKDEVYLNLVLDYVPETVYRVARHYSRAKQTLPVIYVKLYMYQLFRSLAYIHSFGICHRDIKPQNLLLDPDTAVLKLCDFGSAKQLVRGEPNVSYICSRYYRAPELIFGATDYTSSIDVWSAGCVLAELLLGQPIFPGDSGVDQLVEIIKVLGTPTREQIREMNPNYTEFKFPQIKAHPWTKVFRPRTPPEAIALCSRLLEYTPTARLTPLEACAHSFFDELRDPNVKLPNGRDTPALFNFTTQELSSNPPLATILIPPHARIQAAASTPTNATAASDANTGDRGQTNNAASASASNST
SMILES,IC50 [1] [µM],"IC50 [2, 6] [µM]","IC50 [2, 7] [µM]","IC50 [3, 8] [µM]","IC50 [3, 9] [µM]","IC50 [4, 10] [µM]","IC50 [4, 11] [µM]",microsomal stability Cl [% Qh] [5] [% Qh]
"COc1ccc(-c2cc3nn(C)cc3c(O[C@H](C)[C@H]3CNC(=O)C3)n2)cn1 [Example 59, (4R)-4-[(1R)-1-[6-(6-methoxy-3-pyridyl)-2-methyl-pyrazolo-[4,3-c]pyridin-4-yl]oxyethyl]-pyrrolidin-2-one]",> 10,46.2,46.2,> 50,> 50,0.144,0.144,<23
"C[C@@H](Oc1nc(-c2ccc(C(F)(F)F)nc2)cc2nn(C)cc12)[C@H]1CNC(=O)C1 [Example 61, (4R)-4-[(1R)-1-[2-methyl-6-[6-(trifluoromethyl)-3-pyridyl]pyrazolo[4,3-c]pyridin-4-yl]oxyethyl]pyrrolidin-2-one]",> 10,48.1,48.1,> 50,> 50,0.475,0.475,<23
"C[C@@H](Oc1nc(-c2ccc3c(cnn3C)c2)cc2nn(C)cc12)[C@H]1CNC(=O)C1 [Example 62, (4R)-4-[(1R)-1-[2-methyl-6-(1-methylindazol-5-yl)pyrazolo[4,3-c]pyridin-4-yl]oxyethyl]pyrrolidin-2-one]",> 10,4.78,4.78,> 50,> 50,0.0193,0.0193,<23
"C[C@@H](Oc1nc(-c2ccc(N3CCN(C)CC3)cc2)cc2nn(C)cc12)[C@H]1CNC(=O)C1 [Example 67, (4R)-4-[(1R)-1-[2-methyl-6-[4-(4-methylpiperazin-1-yl)phenyl]pyrazolo[4,3-c]pyridin-4-yl]oxyethyl]-pyrrolidin-2-one]",> 10,1.68,1.68,> 50,> 50,0.0152,0.0152,34
"C[C@@H](Oc1nc(-c2ccc3cnn(C)c3c2)cc2nn(C)cc12)[C@H]1CNC(=O)C1 [Example 72, (4R)-4-[(1R)-1-[2-methyl-6-(1-methylindazol-6-yl)pyrazolo[4,3-c]pyridin-4-yl]oxyethyl]pyrrolidin-2-one]",1.45,19.6,19.6,> 50,> 50,0.0526,0.0526,<23
"COc1cc(-c2cc3nn(C)cc3c(O[C@H](C)[C@H]3CNC(=O)C3)n2)ccc1OC(C)C [Example 81, (4R)-4-[(1R)-1-[6-(4-isopropoxy-3-methoxy-phenyl)-2-methyl-pyrazolo-[4,3-c]pyridin-4-yl]oxyethyl]-pyrrolidin-2-one]",> 10,5.24,5.24,48.4,48.4,0.024,0.024,<23

# Reference: US9914735B2, “Heteroaryl Syk inhibitors” (Boehringer Ingelheim International GmbH, priority 2014, dated 2018)
